{"source": "patent US7378090B2", "about": "“Alleviation of the memory deficits and memory components of psychiatric dysfunctions by altering atypical PKM activity” (The Research Foundation of State University of New York, priority 2001, dated 2008)", "key": {"CA1 pyramidal cells": {"system": "CA1 pyramidal cells", "conditions": "sustained application of low concentrations; cited from earlier work"}, "Drosophila [1]": {"system": "Drosophila", "experiment": "Olfactory-avoidance conditioning, learning (tested immediately after single-cycle training)", "assay_type": "in vivo", "conditions": "wild-type flies fed 100 μM chelerythrine for 3 h", "excerpt": "In Drosophila, the best characterized assay for associative learning and memory is an odor-avoidance behavioral task (T. Tully, et al. J. Comp. Physiol. A157, 263-277 (1985) incorporated herein by reference). This classical (Pavlovian) conditioning involves exposing the flies to two odors (the conditioned stimuli, or CS), one at a time, in succession. During one of these odor exposures (the CS+), the flies are simultaneously subjected to electric shock (the unconditioned stimulus, or US), whereas exposure to the other odor (the CS−) lacks this negative reinforcement. […]\n(§1) Pavlovian learning and memory in Drosophila. […] The performance index (PI) was calculated by subtracting the number of flies making the incorrect choice from those making the correct one, dividing by the total number of flies, and multiplying by 100. To avoid odor-avoidance biases, the PI of each single n was calculated by taking an average performance of two groups of flies, one group trained with the CS+ being OCT, the other with the CS+ being MCH.\n(§2) A 4% (wt/vol) sucrose solution was used as a vehicle for the chelerythrine feeding. […] Feeding was monitored by placing 1/50 volume of green food coloring into the solutions, which could then be seen in the abdomens of flies after eating. […]"}, "Drosophila [2]": {"system": "Drosophila", "experiment": "Olfactory-avoidance classical (Pavlovian) conditioning, memory after training", "assay_type": "in vivo", "conditions": "for 24-h memory after massed training: wild-type flies fed 25, 50 or 100 μM chelerythrine in sucrose for 3 h, three cycles of massed training", "excerpt": "In Drosophila, the best characterized assay for associative learning and memory is an odor-avoidance behavioral task (T. Tully, et al. J. Comp. Physiol. A157, 263-277 (1985) incorporated herein by reference). This classical (Pavlovian) conditioning involves exposing the flies to two odors (the conditioned stimuli, or CS), one at a time, in succession. During one of these odor exposures (the CS+), the flies are simultaneously subjected to electric shock (the unconditioned stimulus, or US), whereas exposure to the other odor (the CS−) lacks this negative reinforcement. Following training, the flies are then placed at a ‘choice point’, where the odors come from opposite directions, and expected to decide which odor to avoid. By convention, learning is defined as the fly's performance when testing occurs immediately after training. A single training trial produces strong learning: a typical response is that >90% of the flies avoid the CS+. Performance of wild-type flies from this single-cycle training decays over a roughly 24-hour period until flies once again distribute evenly between the two odors. Flies can also form long-lasting associative olfactory memories, but normally this requires repetitive training regimens.\nas §1, with “Drosophila. To assess learning and memory in Drosophila, an olfactory-avoidance classical (Pavlovian) conditioning protocol was used.” for “Drosophila.”, “MCH. […]” for “MCH.”\nas §2"}, "PKMζ": {"target": "T1, PKMζ (Homo sapiens, UniProt Q05513)", "T1 sequence (Q05513 1-409 isoform Q05513-2)": "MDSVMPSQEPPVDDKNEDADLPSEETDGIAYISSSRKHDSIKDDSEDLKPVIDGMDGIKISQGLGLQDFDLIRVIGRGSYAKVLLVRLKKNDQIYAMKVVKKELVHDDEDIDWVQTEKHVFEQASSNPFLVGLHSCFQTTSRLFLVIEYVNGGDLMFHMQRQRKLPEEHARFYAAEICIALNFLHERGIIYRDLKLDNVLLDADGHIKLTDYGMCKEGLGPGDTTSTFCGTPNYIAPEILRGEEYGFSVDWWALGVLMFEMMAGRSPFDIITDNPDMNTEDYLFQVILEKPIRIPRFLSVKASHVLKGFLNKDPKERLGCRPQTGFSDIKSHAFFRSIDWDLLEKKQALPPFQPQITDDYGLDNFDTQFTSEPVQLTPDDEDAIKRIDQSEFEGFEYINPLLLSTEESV", "conditions": "cited from earlier work"}, "Drosophila [3]": {"system": "Drosophila", "conditions": "cited from earlier work"}}, "note": "Entries after “also recorded” stand apart in the source; their conditions may differ."}
{"molecule": "COc1ccc2c(c[n+](C)c3c4cc5c(cc4ccc23)OCO5)c1OC", "note": "[chelerythrine]", "values": [{"measurement": "LTP maintenance", "setting": "CA1 pyramidal cells", "value": "abolished"}, {"measurement": "learning", "setting": "Drosophila [1]", "value": "not different; also recorded: unaffected"}, {"measurement": "24-h memory after massed training", "setting": "Drosophila [2]", "value": "inhibited 24-hour memory formation in a dose-dependent manner"}, {"measurement": "24-h memory after massed training", "setting": "Drosophila [2]; listed as Chelerythrine", "value": "inhibits 24-h memory after massed training in a dose-dependent manner"}, {"measurement": "inhibition of other PKC isotypes", "setting": "PKMζ; higher concentrations", "value": "inhibits other PKC isotypes at higher concentrations"}, {"measurement": "inhibition of PKMζ", "setting": "PKMζ; low concentrations", "value": "selectively inhibit PKMζ at low concentrations"}]}
{"molecule": "C[C@@H]1C[C@@H]([C@H](O)CC2CC(=O)NC(=O)C2)C(=O)[C@@H](C)C1", "note": "[cycloheximide]", "values": [{"measurement": "anesthesia-resistant memory (ARM)", "setting": "Drosophila [3]; massed or spaced training", "value": "insensitive"}, {"measurement": "memory after spaced training of radish mutants", "setting": "Drosophila [3]; radish mutants", "value": "completely blocked"}, {"measurement": "long-term memory (LTM)", "setting": "Drosophila [3]; spaced training", "value": "blocked"}]}
{"molecule": "FL-MaPKCζ: full-length (FL) mouse atypical PKCζ expressed from heat-shock transgene (protein, UniProt Q02956 1-592, looked up, full-length, full-length (FL) mouse atypical PKCζ expressed from heat-shock transgene) MPSRTDPKMDRSGGRVRLKAHYGGDILITSVDAMTTFKDLCEEVRDMCGLHQQHPLTLKWVDSEGDPCTVSSQMELEEAFRLVCQGRDEVLIIHVFPSIPEQPGMPCPGEDKSIYRRGARRWRKLYRANGHLFQAKRFNRGAYCGQCSERIWGLSRQGYRCINCKLLVHKRCHVLVPLTCRRHMDSVMPSQEPPVDDKNDGVDLPSEETDGIAYISSSRKHDNIKDDSEDLKPVIDGVDGIKISQGLGLQDFDLIRVIGRGSYAKVLLVRLKKNDQIYAMKVVKKELVHDDEDIDWVQTEKHVFEQASSNPFLVGLHSCFQTTSRLFLVIEYVNGGDLMFHMQRQRKLPEEHARFYAAEICIALNFLHERGIIYRDLKLDNVLLDADGHIKLTDYGMCKEGLGPGDTTSTFCGTPNYIAPEILRGEEYGFSVDWWALGVLMFEMMAGRSPFDIITDNPDMNTEDYLFQVILEKPIRIPRFLSVKASHVLKGFLNKDPKERLGCRPQTGFSDIKSHAFFRSIDWDLLEKKQTLPPFQPQITDDYGLDNFDTQFTSEPVQLTPDDEDVIKRIDQSEFEGFEYINPLLLSAEESV", "values": [{"measurement": "24-hour memory after single-cycle training", "setting": "Drosophila [2]; transgene induced by 30-min 32° C. heat shock after training", "value": "not observed"}]}
